Experimental data as given in patent US8173699B2, “Compounds for the treatment of inflammatory diseases” (Boehringer Ingelheim International GmbH, priority 2005, dated 2012).
Where a name gives a salt, the structure may show the parent alone.

melting point	Compound
253 to 254 °C	CN(C)C(=O)CN(c1cccc(N/C(=C2\C(=O)Oc3ccccc32)c2ccc(CN)c(F)c2)c1)S(C)(=O)=O (as salt: HCl) [Example 101]
214 to 217 °C	CN1C(=O)/C(=C(\Nc2ccc(-c3cn(C)cn3)cc2)c2ccc(CN)cc2)c2ccccc21 [Example 36, 3-{(4-aminomethylphenyl)-[4-(1-methyl-1H-imidazol-4-yl)phenylamino]methylene}-1-methyl-1,3-dihydroindol-2-one]
196 to 197 °C	Cc1nc(-c2ccc(N/C(=C3\C(=O)Oc4ccccc43)c3ccc(CN)c(F)c3)cc2)cs1 [Example 102]
